Tests used:
Assay type in all cases: cell-based, human
HT-29 cells [1] = test: Inhibition test for sphere-forming ability of cancer cells (Test Example 1), HT-29; settings: concentration for 50% inhibition of cell proliferation, read-out: IC50 (μmol/L) HT-29 (Sphere IC50 value)
Method in brief: (§1)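 Sphere formation, non-adherent, serum-free: 350-800 cells/well, DMEM/F12 + 2% B27, 20 ng/mL EGF, 10 ng/mL bFGF, 5 μg/mL insulin. Compound in 0.1% DMSO final, 4 d. CellTiter-Glo luminescence; IC50 (μmol/L) for 50% inhibition of proliferation.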

FaDu cells [2] = test: Inhibition test for sphere-forming ability of cancer cells (Test Example 1), FaDu; settings: concentration for 50% inhibition of cell proliferation, read-out: IC50 (μmol/L) FaDu (Sphere IC50 value)
Method in brief: as §1

HCT-116 cells [3] = test: Inhibition test for sphere-forming ability of cancer cells in the presence of BSA (Test Example 2), HCT-116; settings: for IC50: HCT-116 cells, in the presence of 5% BSA, cultured 4 days; for inhibitory effect on the sphere-forming ability of cancer cells: Test Example 2, in the presence of 5% BSA, summary in words, cell line not given (HCT-116, HT-29, FaDu tested)
Protocol: (§2) Human colorectal cancer-derived HCT-116 cells, human colon-adenocarcinoma-derived HT-29 cells, and human pharyngeal cancer-derived FaDu cells were available from American Type Culture Collection (ATCC). HCT-116 cells and HT-29 cells were cultured at 37° C. under 5% CO2 using the McCoy's 5a medium containing 10% fetal bovine serum (FBS) and 1% penicillin/streptomycin, and FaDu cells were cultured at 37° C. under 5% CO2 using the MEM medium containing 10% FBS, 1% non-essential amino acid, 1% sodium pyruvate, 5% bovine serum albumin (BSA), and 1% penicillin/streptomycin. HCT-116 cells, HT-29 cells, and FaDu cells were seeded in a 384 Well Black Clear Bottom Ultra-Low Attachment Microplate (Corning Cat. No. 3827) in an amount of 350-800 cells/well using the DMEM/F12 medium containing 2% B27 supplement (GIBCO), 20 ng/mL epidermal growth factor (EGF) (peprotech), 10 ng/mL basic fibroblast growth factor (bFGF) (peprotech), 5 μg/mL insulin (Sigma), 5% bovine serum albumin (BSA), and 1% penicillin/streptomycin. Each test compound was added into each well to adjust the final concentration of DMSO to 0.1%, and the cells were cultured for 4 days. The number of viable cells in each well was then measured with CellTiter-Glo® Luminescent Cell Viability Assay (Promega) to calculate the concentration of each test compound for 50% inhibition of cell proliferation (Sphere IC50 value; μmol/L).
(§3) The experiment of Test Example 2 was performed for each compound of each Example.
(§4) The concentration of each test compound for 50% inhibition of cell proliferation (Sphere IC50 value; μmol/L) is shown in the following Table.

HCT-116 cells [4] = test: Inhibition test for sphere-forming ability of cancer cells (Test Example 1), HCT-116; settings: for IC50: HCT-116 cells, concentration for 50% inhibition of cell proliferation, read-out: IC50 (μmol/L) HCT-116 (Sphere IC50 value); for inhibitory effect on the sphere-forming ability of cancer cells: Test Example 1, summary in words, cell line not given (HCT-116, HT-29, FaDu tested)
Method in brief: as §1

HT-29 cells [5] = test: Inhibition test for sphere-forming ability of cancer cells in the presence of BSA (Test Example 2), HT-29; settings: in the presence of 5% BSA, cultured 4 days
Protocol: as §2, §3, §4

FaDu cells [6] = test: Inhibition test for sphere-forming ability of cancer cells in the presence of BSA (Test Example 2), FaDu; settings: in the presence of 5% BSA, cultured 4 days
Protocol: as §2, §3, §4

IC50 (HT-29 cells [1]; Homo sapiens) [µmol/L] | IC50 (FaDu cells [2]; Homo sapiens) [µmol/L] | IC50 (HCT-116 cells [3]; Homo sapiens, HCT-116, 96 h) [nM] | IC50 (HCT-116 cells [4]; Homo sapiens) [µmol/L] | IC50 (HT-29 cells [5]; Homo sapiens, 96 h) [nM] | IC50 (FaDu cells [6]; Homo sapiens, 96 h) [nM] | IC50 (HT-29 cells [1]) [µmol/L] | IC50 (FaDu cells [2]) [µmol/L] | IC50 (HCT-116 cells [3]) [nM] | IC50 (HCT-116 cells [4]) [µmol/L] | IC50 (HT-29 cells [5]) [nM] | IC50 (FaDu cells [6]) [nM] | Structure (SMILES) | inhibitory effect on the sphere-forming ability of cancer cells (HCT-116 cells [3]) | inhibitory effect on the sphere-forming ability of cancer cells (HCT-116 cells [4])
0.07 | 0.07 | 830 | 0.63 | 550 | 280 | – | – | – | – | – | – | CC(=O)Nc1ccc(/C=C/C(=O)Nc2cn(Cc3cccc(OC(F)(F)F)c3)cn2)cc1 [Example 10, (2E)-3-[4-(acetylamino)phenyl]-N-{1-[3-(trifluoromethoxy)benzyl]-1H-imidazol-4-yl}prop-2-enamide] | – | –
– | – | – | – | – | – | 6.75 | 3.62 | > 10000 | 9.96 | 6390 | 5260 | O=C(Nc1cn(Cc2cccc(Cl)c2)cn1)c1cnc2[nH]ccc2c1 [Example 177] | – | –
0.93 | < 0.01 | 550 | 0.25 | 100 | < 10 | – | – | – | – | – | – | Cl.O=C(/C=C/c1ccc(F)c(O)c1)Nc1cn(Cc2cccc(C(F)(F)F)c2)cn1 [Example 37, (E)-3-(4-Fluoro-3-hydroxyphenyl)-N-(1-(3-(trifluoromethyl)benzyl)-1H-imidazol-4-yl)acrylamide Hydrochloride] | particularly potent inhibitory effect | particularly potent inhibitory effect
0.07 | 0.08 | 720 | 0.08 | 540 | 60 | – | – | – | – | – | – | N#Cc1ccc(/C=C/C(=O)Nc2cn(Cc3cccc(Cl)c3)cn2)cc1OCCO [Example 35, (2E)-N-[1-(3-chlorobenzyl)-1H-imidazol-4-yl]-3-[4-cyano-3-(2-hydroxyethoxy)phenyl]prop-2-enamide] | – | particularly potent inhibitory effect
0.62 | 0.79 | > 10000 | 2.62 | 7600 | 4670 | – | – | – | – | – | – | O=C(/C=C/C=C/c1ccccc1)Nc1cn(Cc2cccc(Cl)c2)cn1 [Example 46, (2E,4E)-N-(1-(3-Chlorobenzyl)-1H-imidazol-4-yl)-5-phenylpenta-2,4-dienamide] | – | –
– | – | – | – | – | – | 0.8 | 0.71 | 7460 | 0.8 | 5990 | 4440 | Cc1csc(NC(=O)c2cn(Cc3cccc(Cl)c3)cn2)n1 [Example 257] | – | –
– | – | – | – | – | – | 4.17 | – | > 10000 | 6.39 | 4880 | – | COc1cc(C(=O)Nc2cn(Cc3cccc(C(F)(F)F)c3)cn2)cnc1Cl [Example 228] | – | –
0.07 | – | 700 | 0.56 | 520 | – | – | – | – | – | – | – | O=C(/C=C/c1cccnc1)Nc1cn(Cc2cc(F)c(F)c(F)c2)cn1 [Example 231] | – | particularly potent inhibitory effect
8.71 | – | 9210 | > 10 | 540 | – | – | – | – | – | – | – | COC(=O)c1ccc(/C=C/C(=O)Nc2cn(Cc3cccc(C(F)(F)F)c3)cn2)cn1 [Example 131, Methyl 5-[(1E)-3-oxo-3-({1-[3-(trifluoromethyl)benzyl]-1H-imidazol-4-yl}amino)prop-1-en-1-yl]picolinate] | – | –
– | – | – | – | – | – | 0.08 | – | 570 | 0.07 | 70 | – | O=C(Nc1ccc(CO)cc1)c1cn(Cc2cc(F)c(F)c(F)c2)cn1 [Example 253] | particularly potent inhibitory effect | particularly potent inhibitory effect
6.37 | – | > 10000 | 8.22 | 6460 | – | – | – | – | – | – | – | COC(=O)c1ccc(OCC(=O)Nc2cn(Cc3cc(F)c(F)c(F)c3)cn2)cn1 [Example 132, Methyl 5-(2-oxo-2-{[1-(3,4,5-trifluorobenzyl)-1H-imidazol-4-yl]amino}ethoxy)picolinate] | – | –
4.07 | – | > 10000 | 7.87 | 5960 | – | – | – | – | – | – | – | COc1ccc(C(=O)Nc2cn(Cc3cccc(Cl)c3)c(C)n2)cc1OC [Example 102] | – | –

From patent US10898469B2, “Imidazolylamide derivative” (Sumitomo Dainippon Pharma Co., Ltd., priority 2016, dated 2021)
